Results on 31 molecules are retold here after publication PMC8286840, “Identifying SARS-CoV-2 antiviral compounds by screening for small molecule inhibitors of Nsp3 papain-like protease” (Biochemical Journal, 2021).

Molecules are shown by their SMILES. Where a name gives a salt, the structure may show the parent alone. Read-outs that look alike come from different tables or passages of the source.

For experiment [1], the target named is T1, SARS-CoV-2 PLpro (nsp3 1564–1878) (Severe acute respiratory syndrome coronavirus 2, UniProt P0DTD1). Briefly: biochemical. The arrangement: FRET-quenched peptide (Pro3) cleavage by PLpro, 10 min pre-incubation, slope over 20 min, normalised to no-compound control. The settings on record: high concentration screen, read-out: % of control remaining.
Method: The plates were organized with columns 3–22 containing the compounds; the remaining columns were used for reaction controls including substrate only and substrate with enzyme but no compound (Figure 3Aii). The PLpro enzyme was pre-incubated with the compounds for 10 min, and then the reaction was initiated by the addition of substrate. […] We incubated the inhibitors with PLpro before the enzymatic reaction so that the slow-binding inhibitors will not be missed out [21]. […] Fluorescence was read on a Spark multimode microplate reader (Tecan) with an excitation wavelength at 330 nm and emission wavelength at 420 nm. […] An amount of 5 µl of the enzyme was pre-incubated with compounds for 10 min before the addition of 15 µl substrate. Fluorescence was monitored at 2 min for 20 min with 3 min intervals giving a total of seven readings.
Experiment [2] concerns the target T1, SARS-CoV-2 PLpro (nsp3 1564–1878). Briefly: biochemical. Also noted: FRET-quenched peptide (Pro3) cleavage by PLpro, 10 min pre-incubation, slope over 20 min, normalised to no-compound control. The settings on record: low concentration screen, read-out: % of control remaining.

With `CC(=O)O[C@H]1C(=O)[C@@]2(C)[C@H]([C@H](OC(=O)c3ccccc3)[C@]3(O)C[C@H](O)C(C)=C1C3(C)C)[C@]1(OC(C)=O)CO[C@@H]1C[C@@H]2O` [Baccatin III], the remaining activity at 3.75 µM in experiment [1] (Well no.=3099) was 99.5%. Besides, the remaining activity at 1.25 µM in experiment [2] (Well no.=3099) came out at 97.9%.

For `N[C@@H](CCC(=O)O)C(=O)O` [L-Glutamic acid hydrochloride], the remaining activity at 3.75 µM in experiment [1] (Well no.=619) came to 97.5%. For the same molecule, the remaining activity at 1.25 µM in experiment [2] (Well no.=619) turned out to be 102%.

As to `CCOC(=O)[C@H](CCc1ccccc1)N[C@@H](C)C(=O)N1CCC[C@H]1C(=O)O` [Enalapril], in experiment [1] (Well no.=2024), the remaining activity at 3.75 µM was determined as 102%. In addition, in experiment [2] (Well no.=2024), the remaining activity at 1.25 µM stood at 93.5%.

`CNCC(O)c1ccc(O)c(O)c1` (racemic) [DL-Adrenaline]: the remaining activity at 3.75 µM in experiment [1] (Well no.=5278) is 94.3%. Further, the remaining activity at 1.25 µM in experiment [2] (Well no.=5278) stood at 96.6%.

On to `COc1cc(O)c(C(=O)/C=C/c2ccccc2)c(OC)c1` [Flavokawain B], for which the remaining activity at 3.75 µM in experiment [1] (Well no.=3685) turned out to be 100%. Besides, in experiment [2] (Well no.=3685), the remaining activity at 1.25 µM came out at 98.5%.

`CC(C)(C#N)c1ccc(N2C(=O)OCc3cnc4ccc(-c5cnc6ccccc6c5)cc4c32)cc1` [ETP-46464]: the remaining activity at 3.75 µM in experiment [1] (Well no.=5557) is 97.9%. The remaining activity at 1.25 µM in experiment [2] (Well no.=5557) amounted to 101%.

As to `C[C@@H]1O[C@@H](O[C@H]2[C@H](Oc3cc(O)c4c(=O)c(O)c(-c5ccc(O)cc5)oc4c3)O[C@H](CO)[C@@H](O)[C@@H]2O)[C@H](O)[C@H](O)[C@H]1O` [Kaempferol-7-neohesperidoside], the remaining activity at 3.75 µM in experiment [1] (Well no.=3307) was 103%. Besides, the remaining activity at 1.25 µM in experiment [2] (Well no.=3307) came to 102%.

In the case of `CC[C@@H]1/C=C(\C)C[C@H](C)C[C@H](OC)[C@H]2O[C@@](O)(C(=O)C(=O)N3CCCC[C@H]3C(=O)O[C@H](/C(C)=C/[C@@H]3CC[C@@H](O)[C@H](OC)C3)[C@H](C)[C@@H](O)CC1=O)[C@H](C)C[C@@H]2OC` [Ascomycin], the remaining activity at 3.75 µM in experiment [1] (Well no.=6638) stood at 98.9%; in experiment [1] (Well no.=7410) it was 96.8%. For the same molecule, the remaining activity at 1.25 µM in experiment [2] (Well no.=6638) was 102%; in experiment [2] (Well no.=7410), 98%.

With `CCCCC/C=C\C[C@@H](O)/C=C/C=C\CCC(=O)O` [Tetranor-12(R)-HETE], the remaining activity at 3.75 µM in experiment [1] (Well no.=4563) was determined as 97.6%. Moreover, the remaining activity at 1.25 µM in experiment [2] (Well no.=4563) came to 97%.

Regarding `CC[C@@H]([C@H](C)O)n1ncn(-c2ccc(N3CCN(c4ccc(OC[C@@H]5CO[C@@](Cn6cncn6)(c6ccc(F)cc6F)C5)cc4)CC3)cc2)c1=O` [Posaconazole], the remaining activity at 3.75 µM in experiment [1] (Well no.=4763) was determined as 92.9%. Also, the remaining activity at 1.25 µM in experiment [2] (Well no.=4763) is 93.6%.

For `O=C(NCC1CCOCC1)c1cnc(Nc2ccc(Cl)cc2Cl)nc1C(F)(F)F` [GW842166X], in experiment [1] (Well no.=5085), the remaining activity at 3.75 µM was determined as 100%. Further, the remaining activity at 1.25 µM in experiment [2] (Well no.=5085) is 97.9%.

For `CCOC(=O)C1=C(C)NC(=S)NC1c1cccc(O)c1` (stereo not shown) [Monastrol], the remaining activity at 3.75 µM in experiment [1] (Well no.=891) came out at 106%. The remaining activity at 1.25 µM in experiment [2] (Well no.=891) worked out at 106%.

Take `NCCc1cc(O)c(O)cc1O` [Oxidopamine (hydrobromide)]: the remaining activity at 3.75 µM in experiment [1] (Well no.=6940) turned out to be 92.3%. For the same molecule, in experiment [2] (Well no.=6940), the remaining activity at 1.25 µM came to 92%.

Regarding `OCc1cnc[nH]1` [4-Imidazolemethanol hydrochloride], the remaining activity at 3.75 µM in experiment [1] (Well no.=608) is 96.7%. Moreover, the remaining activity at 1.25 µM in experiment [2] (Well no.=608) is 97.2%.

For `NCC[C@H](O)C(=O)N[C@@H]1C[C@H](N)[C@@H](O[C@H]2O[C@H](CN)[C@@H](O)[C@H](O)[C@H]2O)[C@H](O)[C@H]1O[C@H]1O[C@H](CO)[C@@H](O)[C@H](N)[C@H]1O` [Amikacin sulfate], the remaining activity at 3.75 µM in experiment [1] (Well no.=5313) was determined as 99.9%. Moreover, in experiment [2] (Well no.=5313), the remaining activity at 1.25 µM turned out to be 107%.

On to `O=C(O)c1cn(C2CC2)c2cc(N3CCNCC3)c(F)cc2c1=O` [Ciprofloxacin], for which the remaining activity at 3.75 µM in experiment [1] (Well no.=2263) is 100%. Further, the remaining activity at 1.25 µM in experiment [2] (Well no.=2263) turned out to be 99%.

For the molecule `C[C@]12N[C@H](Cc3ccccc31)c1ccccc12` [(+)-MK-801 hydrogen maleate], the remaining activity at 3.75 µM in experiment [1] (Well no.=1133) worked out at 92.1%. Also, the remaining activity at 1.25 µM in experiment [2] (Well no.=1133) turned out to be 98.4%.

With `OC[C@H]1O[C@@H](n2cnc3c(NCCc4ccccc4)ncnc32)[C@H](O)[C@@H]1O` [N6-(2-Phenylethyl)adenosine], the remaining activity at 3.75 µM in experiment [1] (Well no.=8431) was determined as 96.2%. Moreover, the remaining activity at 1.25 µM in experiment [2] (Well no.=8431) was 96.1%.

On to `C[C@@H]1O[C@@H](O[C@H]2[C@H](Oc3cc(O)c(C(=O)CCc4ccc(O)cc4)c(O)c3)O[C@H](CO)[C@@H](O)[C@@H]2O)[C@H](O)[C@H](O)[C@H]1O` [Naringin Dihydrochalcone], for which the remaining activity at 3.75 µM in experiment [1] (Well no.=8148) amounted to 97.1%. In experiment [2] (Well no.=8148), the remaining activity at 1.25 µM was determined as 106%.

Regarding `COc1ccc2cc1Oc1ccc(cc1)C[C@H]1c3cc(c(OC)cc3CCN1C)Oc1c(OC)c(OC)cc3c1[C@H](C2)N(C)CC3` [Tetrandrine], the remaining activity at 3.75 µM in experiment [1] (Well no.=3182) came out at 99.4%. Moreover, the remaining activity at 1.25 µM in experiment [2] (Well no.=3182) came to 103%.

On to `CN1CCc2cc(O)c(O)cc2C(c2ccccc2)C1` (stereo not shown) [SKF 75670 hydrobromide], for which the remaining activity at 3.75 µM in experiment [1] (Well no.=1360) worked out at 105%. Further, in experiment [2] (Well no.=1360), the remaining activity at 1.25 µM stood at 103%.

For `CCCCCCCCOc1ccccc1C(=O)Nc1ccc(C(=O)OCC[N+](C)(CC)CC)cc1` [Otilonium Bromide], in experiment [1] (Well no.=4893), the remaining activity at 3.75 µM turned out to be 93.3%. Moreover, the remaining activity at 1.25 µM in experiment [2] (Well no.=4893) was found to be 92.9%.

Turning to `CC[C@@H](C)Nc1cc(C(=O)N[C@H]2C[C@H]3CC[C@@H](C2)N3c2ccc(C(=O)C3CC3)cn2)c(C)cc1C(N)=O` [XL888], the remaining activity at 3.75 µM in experiment [1] (Well no.=8982) was determined as 93.8%. Moreover, in experiment [2] (Well no.=8982), the remaining activity at 1.25 µM came to 90.5%.

With `CCCCCCCC(=O)OC[C@H](CO)OC(=O)CCCCCCC` [1,2-Dioctanoyl-SN-glycerol], the remaining activity at 3.75 µM in experiment [1] (Well no.=4476) worked out at 107%. Besides, in experiment [2] (Well no.=4476), the remaining activity at 1.25 µM was found to be 103%.

As for `Cn1c(=O)c2[nH]cnc2n(C)c1=O` [Aminophylline], the remaining activity at 3.75 µM in experiment [1] (Well no.=1542) was determined as 103%. Also, the remaining activity at 1.25 µM in experiment [2] (Well no.=1542) came to 101%.

Regarding `CN1CCN(C2=Nc3cc(F)ccc3Cc3ccccc32)CC1` [Fluperlapine], the remaining activity at 3.75 µM in experiment [1] (Well no.=2100) worked out at 98.8%. The remaining activity at 1.25 µM in experiment [2] (Well no.=2100) came to 101%.

On to `O=C1NC(=O)C(c2ccccc2)(c2ccccc2)N1` [Phenytoin], for which, in experiment [1] (Well no.=1643), the remaining activity at 3.75 µM was 100%. Besides, in experiment [2] (Well no.=1643), the remaining activity at 1.25 µM came to 99.6%.

Take `N=C(N)SCCN` [2-(2-Aminoethyl)isothiourea dihydrobromide]: the remaining activity at 3.75 µM in experiment [1] (Well no.=353) turned out to be 97.5%. In addition, in experiment [2] (Well no.=353), the remaining activity at 1.25 µM is 96.2%.

With `COc1ccc(Br)cc1S(=O)(=O)NC(=O)/C=C/c1ccccc1Cc1ccc2ccccc2c1` [L-798106], the remaining activity at 3.75 µM in experiment [1] (Well no.=5661) stood at 95%. Further, the remaining activity at 1.25 µM in experiment [2] (Well no.=5661) stood at 91.7%.

For `NS(=O)(=O)c1ccc2c(c1)C1C=CCC1C(c1ccc(Br)cc1)N2` (stereo not shown) [4BP-TQS], the remaining activity at 3.75 µM in experiment [1] (Well no.=5971) was 105%. The remaining activity at 1.25 µM in experiment [2] (Well no.=5971) was found to be 105%.

For `CC(=O)/C(C)=N/O` [2,3-Butanedione monoxime], the remaining activity at 3.75 µM in experiment [1] (Well no.=22) came to 105%. Moreover, the remaining activity at 1.25 µM in experiment [2] (Well no.=22) was found to be 103%.
